Data reported in ChEMBL document CHEMBL5370574, “Discovery and Characterization of Moracin C as an Anti-Gouty Arthritis/Hyperuricemia Candidate by Docking-Based Virtual Screening and Pharmacological Evaluation” (J Nat Prod, 2023).
One block for each compound: values may come before it. Active and inactive are the calls of the source. No cut-off for these calls is given here.

What was measured:
[1] = target: T1, Xanthine dehydrogenase/oxidase (Homo sapiens, UniProt P47989); experiment: Inhibition of XOD (unknown origin) using xanthine as substrate at 1 uM preincubated for 30 mins followed by xanthine addition measured after 30 mins by microplate reader relative to control; details: 0.5 h, time 60 min
[2] = target: T1, Xanthine dehydrogenase/oxidase; experiment: Inhibition of XOD (unknown origin) using xanthine as substrate preincubated for 30 mins followed by xanthine addition measured after 30 mins by microplate reader
Rattus norvegicus [3] = experiment: Antiarthritic activity against MSU-induced Sprague-Dawley rat OA model assessed as inflammation index at 10 mg/kg, ig administered for 3 days; format: functional; details: time 3 day
Mus musculus [4] = experiment: Hypouricemic activity in hypoxanthine/potassium oxonate-induced hyperuricemic Kunming mouse model assessed as decrease in serum uric acid level at 5 to 20 mg/kg, po administered for 7 days measured 4 hrs post last dose by biochemical analyzer; format: functional, organism-based; details: dose 5-20 mg/kg, time 7.0 day
Mus musculus [5] = experiment: Hypouricemic activity in hypoxanthine/potassium oxonate-induced hyperuricemic Kunming mouse model assessed as decrease in uric acid level in urine at 5 to 20 mg/kg, po administered for 7 days measured 4 hrs post last dose by automatic biochemical analyzer; format: functional, organism-based; details: dose 5-20 mg/kg, time 7.0 day
Mus musculus [6] = experiment: Hypouricemic activity in hypoxanthine/potassium oxonate-induced hyperuricemic Kunming mouse model assessed as decrease in serum XOD level at 5 to 20 mg/kg, po administered for 7 days measured 4 hrs post last dose by automatic biochemical analyzer; format: functional, organism-based; details: dose 5-20 mg/kg, time 7.0 day
Mus musculus [7] = experiment: Hypouricemic activity in hypoxanthine/potassium oxonate-induced hyperuricemic Kunming mouse model assessed as decrease in liver XOD level at 5 to 20 mg/kg, po administered for 7 days measured 4 hrs post last dose by automatic biochemical analyzer; format: functional, organism-based; details: dose 5-20 mg/kg, time 7.0 day
RAW264.7 [8] = experiment: Antiinflammatory activity in MSU-induced mouse RAW264.7 cells assessed as decrease in TNF-alpha expression preincubated for 2 hrs followed by MSU stimulation and measured after 12 hrs by ELISA; format: functional, cell-based; details: dose 1-10 µM, time 14.0 hrs
RAW264.7 [9] = experiment: Antiinflammatory activity in MSU-induced mouse RAW264.7 cells assessed as decrease in IL-1beta expression preincubated for 2 hrs followed by MSU stimulation and measured after 12 hrs by ELISA; format: functional, cell-based; details: dose 1-10 µM, time 14.0 hrs
RAW264.7 [10] = experiment: Antiinflammatory activity in MSU-induced mouse RAW264.7 cells assessed as decrease in TNF-alpha mRNA expression at 1 to 10 uM preincubated for 2 hrs followed by MSU stimulation and measured after 12 hrs by qRT-PCR analysis; format: functional, cell-based; details: dose 1-10 µM, time 14.0 hrs
RAW264.7 [11] = experiment: Antiinflammatory activity in MSU-induced mouse RAW264.7 cells assessed as decrease in IL-1beta mRNA expression at 1 to 10 uM preincubated for 2 hrs followed by MSU stimulation and measured after 12 hrs by qRT-PCR analysis; format: functional, cell-based; details: dose 1-10 µM, time 14.0 hrs
Rattus norvegicus [12] = experiment: Antiarthritic activity against MSU-induced Sprague-Dawley rat OA model assessed as reduction of serum TNF-alpha protein expression level at 5 to 20 mg/kg, ig administered for 3 days by ELISA; format: functional, organism-based; details: dose 5-20 mg/kg, time 3.0 day
Rattus norvegicus [13] = experiment: Antiarthritic activity against MSU-induced Sprague-Dawley rat OA model assessed as reduction of serum IL-1beta protein expression level at 5 to 20 mg/kg, ig administered for 3 days by ELISA; format: functional, organism-based; details: dose 5-20 mg/kg, time 3.0 day
Rattus norvegicus [14] = experiment: Antiarthritic activity against MSU-induced Sprague-Dawley rat OA model assessed as reduction of serum IL-1beta protein expression level at 10 mg/kg, ig administered for 3 days by ELISA; format: functional, organism-based; details: time 3.0 day
Rattus norvegicus [15] = experiment: Antiarthritic activity against MSU-induced Sprague-Dawley rat OA model assessed as inflammation index at 5 mg/kg, ig administered for 3 days; format: functional; details: time 3 day
Rattus norvegicus [16] = experiment: Antiarthritic activity against MSU-induced Sprague-Dawley rat OA model assessed as dysfunction index at 5 mg/kg, ig administered for 3 days; format: functional; details: time 3 day
Rattus norvegicus [17] = experiment: Antiarthritic activity against MSU-induced Sprague-Dawley rat OA model assessed as toe swelling volume variation at 5 mg/kg, ig administered for 3 days; format: functional; details: time 3 day
Rattus norvegicus [18] = experiment: Antiarthritic activity against MSU-induced Sprague-Dawley rat OA model assessed as dysfunction index at 10 mg/kg, ig administered for 3 days; format: functional; details: time 3 day
Rattus norvegicus [19] = experiment: Antiarthritic activity against MSU-induced Sprague-Dawley rat OA model assessed as toe swelling volume variation at 10 mg/kg, ig administered for 3 days; format: functional; details: time 3 day
Rattus norvegicus [20] = experiment: Antiarthritic activity against MSU-induced Sprague-Dawley rat OA model assessed as inflammation index at 20 mg/kg, ig administered for 3 days; format: functional; details: time 3 day
Rattus norvegicus [21] = experiment: Antiarthritic activity against MSU-induced Sprague-Dawley rat OA model assessed as dysfunction index at 20 mg/kg, ig administered for 3 days; format: functional; details: time 3 day
Rattus norvegicus [22] = experiment: Antiarthritic activity against MSU-induced Sprague-Dawley rat OA model assessed as toe swelling volume variation at 20 mg/kg, ig administered for 3 days; format: functional; details: time 3 day
Rattus norvegicus [23] = experiment: Antiarthritic activity against MSU-induced Sprague-Dawley rat OA model assessed as dysfunction index at 1 mg/kg, ig administered for 3 days; format: functional, organism-based; details: time 3.0 day
Rattus norvegicus [24] = experiment: Antiarthritic activity against MSU-induced Sprague-Dawley rat OA model assessed as toe swelling volume variation at 1 mg/kg, ig administered for 3 days; format: functional, organism-based; details: time 3.0 day
Rattus norvegicus [25] = experiment: Antiarthritic activity against MSU-induced Sprague-Dawley rat OA model assessed as reduction in NLRP3 mRNA expression level in tissue joint at 5 to 20 mg/kg, ig administered for 3 days by qRT-PCR analysis; format: functional, organism-based; details: dose 5-20 mg/kg, time 3.0 day
Rattus norvegicus [26] = experiment: Antiarthritic activity against MSU-induced Sprague-Dawley rat OA model assessed as reduction in ASC mRNA expression level in tissue joint at 5 to 20 mg/kg, ig administered for 3 days by qRT-PCR analysis; format: functional, organism-based; details: dose 5-20 mg/kg, time 3.0 day
Rattus norvegicus [27] = experiment: Antiarthritic activity against MSU-induced Sprague-Dawley rat OA model assessed as reduction in caspase-1 mRNA expression level in tissue joint at 5 to 20 mg/kg, ig administered for 3 days by qRT-PCR analysis; format: functional, organism-based; details: dose 5-20 mg/kg, time 3.0 day
Rattus norvegicus [28] = experiment: Antiarthritic activity against MSU-induced Sprague-Dawley rat OA model assessed as inflammation index at 1 mg/kg, ig administered for 3 days; format: functional, organism-based; details: time 3.0 day
[29] = target: T2, Solute carrier family 2, facilitated glucose transporter member 9 (Homo sapiens) (UniProt Q9NRM0); experiment: Inhibition of GLUT9 (unknown origin) expressed in HEK293T cells assessed as effect on uric acid induced current at 10 uM; format: cell-based
T2 sequence (whole entry): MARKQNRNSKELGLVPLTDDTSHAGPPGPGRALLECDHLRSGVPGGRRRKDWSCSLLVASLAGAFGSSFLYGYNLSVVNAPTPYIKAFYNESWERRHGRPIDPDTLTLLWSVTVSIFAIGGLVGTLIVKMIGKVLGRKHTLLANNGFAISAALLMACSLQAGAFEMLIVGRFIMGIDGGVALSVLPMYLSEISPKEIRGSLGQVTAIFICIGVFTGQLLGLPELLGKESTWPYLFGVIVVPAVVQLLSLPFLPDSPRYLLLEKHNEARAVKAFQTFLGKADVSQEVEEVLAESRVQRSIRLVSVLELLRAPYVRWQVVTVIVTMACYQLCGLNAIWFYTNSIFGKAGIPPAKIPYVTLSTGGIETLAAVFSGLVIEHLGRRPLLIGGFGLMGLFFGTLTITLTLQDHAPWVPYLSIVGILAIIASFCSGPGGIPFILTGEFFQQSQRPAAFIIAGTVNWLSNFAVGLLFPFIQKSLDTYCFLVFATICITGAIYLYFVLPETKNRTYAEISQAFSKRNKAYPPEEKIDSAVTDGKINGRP

[30] = target: T3, Solute carrier family 22 member 12 (Homo sapiens, UniProt Q96S37); experiment: Inhibition of URAT1 (unknown origin) expressed in HEK293T cells assessed as reduction in 14C-uric acid uptake at 10 uM; format: cell-based
T3 sequence (Q96S37 whole entry): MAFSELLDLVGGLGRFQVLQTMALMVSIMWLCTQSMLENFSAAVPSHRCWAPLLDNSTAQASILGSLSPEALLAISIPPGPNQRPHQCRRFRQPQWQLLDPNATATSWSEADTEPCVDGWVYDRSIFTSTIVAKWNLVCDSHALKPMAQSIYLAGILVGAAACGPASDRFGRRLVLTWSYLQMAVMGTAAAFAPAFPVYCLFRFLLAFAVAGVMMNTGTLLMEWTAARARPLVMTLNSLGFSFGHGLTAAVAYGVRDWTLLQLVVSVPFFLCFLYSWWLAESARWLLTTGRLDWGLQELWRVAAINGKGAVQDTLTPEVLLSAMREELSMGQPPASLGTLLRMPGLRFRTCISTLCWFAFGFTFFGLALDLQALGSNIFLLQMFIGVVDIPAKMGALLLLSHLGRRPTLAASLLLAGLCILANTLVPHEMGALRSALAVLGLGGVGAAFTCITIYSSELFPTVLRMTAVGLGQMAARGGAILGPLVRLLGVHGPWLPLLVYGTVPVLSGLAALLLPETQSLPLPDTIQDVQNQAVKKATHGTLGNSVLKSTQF

[31] = target: T1, Xanthine dehydrogenase/oxidase; experiment: Inhibition of XOD (unknown origin)
[32] = target: T3, Solute carrier family 22 member 12; experiment: Inhibition of URAT1(unknown origin)

T1 sequence (P47989 whole entry): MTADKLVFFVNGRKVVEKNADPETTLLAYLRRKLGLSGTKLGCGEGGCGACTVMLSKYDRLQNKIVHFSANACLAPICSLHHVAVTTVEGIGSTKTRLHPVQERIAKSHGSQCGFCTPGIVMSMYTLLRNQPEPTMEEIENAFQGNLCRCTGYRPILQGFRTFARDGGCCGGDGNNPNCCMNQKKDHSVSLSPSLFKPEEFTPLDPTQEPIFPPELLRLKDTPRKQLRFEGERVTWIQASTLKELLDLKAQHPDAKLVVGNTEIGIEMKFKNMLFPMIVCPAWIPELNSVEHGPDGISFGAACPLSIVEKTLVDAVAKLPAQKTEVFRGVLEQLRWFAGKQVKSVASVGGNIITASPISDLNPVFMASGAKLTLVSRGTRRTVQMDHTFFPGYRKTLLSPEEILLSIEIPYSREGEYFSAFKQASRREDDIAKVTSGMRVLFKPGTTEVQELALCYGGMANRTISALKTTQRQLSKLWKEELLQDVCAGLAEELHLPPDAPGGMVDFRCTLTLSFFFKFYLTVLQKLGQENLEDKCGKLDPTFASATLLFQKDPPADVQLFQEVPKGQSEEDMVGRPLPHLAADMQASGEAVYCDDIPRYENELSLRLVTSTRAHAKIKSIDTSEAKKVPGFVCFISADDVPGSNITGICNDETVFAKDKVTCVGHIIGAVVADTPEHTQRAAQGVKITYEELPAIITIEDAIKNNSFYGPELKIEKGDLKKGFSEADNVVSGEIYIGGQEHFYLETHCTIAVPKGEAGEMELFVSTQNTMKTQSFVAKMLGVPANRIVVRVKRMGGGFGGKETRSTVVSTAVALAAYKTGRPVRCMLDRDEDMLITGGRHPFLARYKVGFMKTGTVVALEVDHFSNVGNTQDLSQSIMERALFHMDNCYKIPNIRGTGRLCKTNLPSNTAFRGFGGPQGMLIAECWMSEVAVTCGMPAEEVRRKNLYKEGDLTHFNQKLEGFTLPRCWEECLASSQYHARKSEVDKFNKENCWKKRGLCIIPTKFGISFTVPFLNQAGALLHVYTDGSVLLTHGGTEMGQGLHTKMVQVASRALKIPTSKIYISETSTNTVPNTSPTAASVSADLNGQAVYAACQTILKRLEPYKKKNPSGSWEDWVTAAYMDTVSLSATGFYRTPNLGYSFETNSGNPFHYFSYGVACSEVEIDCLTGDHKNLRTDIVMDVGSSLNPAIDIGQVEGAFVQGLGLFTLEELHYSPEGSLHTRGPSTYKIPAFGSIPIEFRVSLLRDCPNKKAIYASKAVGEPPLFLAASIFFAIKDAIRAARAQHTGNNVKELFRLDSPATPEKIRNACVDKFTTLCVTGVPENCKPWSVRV

inhibition at 1 µM [1]: 70% | IC50 [2]: 0.25 µM | inhibition [29]: inactive | inhibition (INH) [30]: Not Active
SMILES: CC(C)=CCc1c(O)cc(-c2cc3ccc(O)cc3o2)cc1O [MORACIN C]
Activity_index (Rattus norvegicus [3]): 1 | Activity (Mus musculus [4]): Active | Activity (Mus musculus [5]): inactive | Activity (Mus musculus [6]): Active | Activity (Mus musculus [7]): Active | Activity (RAW264.7 [8]): Dose-Dependent Effect | Activity (RAW264.7 [9]): Dose-Dependent Effect | Activity (RAW264.7 [10]): Active | Activity (RAW264.7 [11]): Active | Activity (Rattus norvegicus [12]): Active | Activity (Rattus norvegicus [13]): Active | Activity (Rattus norvegicus [14]): Active | Activity_index (Rattus norvegicus [15]): 1 | Activity_index (Rattus norvegicus [16]): 0 | Activity (Rattus norvegicus [17]): 0.16 mL | Activity_index (Rattus norvegicus [18]): 0 | Activity (Rattus norvegicus [19]): 0.1 mL | Activity_index (Rattus norvegicus [20]): 0.6 | Activity_index (Rattus norvegicus [21]): 0 | Activity (Rattus norvegicus [22]): 0.06 mL | Activity (Rattus norvegicus [23]): Active | Activity (Rattus norvegicus [24]): Active | Activity (Rattus norvegicus [25]): Active | Activity (Rattus norvegicus [26]): Active | Activity (Rattus norvegicus [27]): Active | Activity (Rattus norvegicus [28]): Active

inhibition at 1 µM [1]: 32% | IC50 [2]: 5.1 µM
SMILES: CC1(C)C=Cc2c(O)cc(-c3cc4ccc(O)cc4o3)cc2O1 [MORACIN D]

IC50 [31]: 25 µM | Ki [32]: 2 µM
SMILES: O=c1c(O)c(-c2ccc(O)cc2O)oc2cc(O)cc(O)c12 [MORIN]

Continued, compound first:

SMILES: COc1ccc2c(=O)c(-c3ccc(O)cc3)coc2c1 [ISOFORMONENTIN]
inhibition at 1 µM [1]: 25% | IC50 [2]: 13 µM

SMILES: CC1(C)C=Cc2c(ccc3c2O[C@H]2c4ccc(O)cc4OC[C@@H]32)O1 [PHASEOLIN]
inhibition at 1 µM [1]: < 20%

SMILES: COc1ccc(-c2cc(=O)c3c(O)c(OC)c(OC)cc3o2)cc1 [SALVIGENIN]
inhibition at 1 µM [1]: < 20%
